Source: patent US20120022048A1, “Anti-proliferative substituted pyrazolo[3,4-d]pyrimidines derivatives (SPP) to inhibit immune activation, virus replication and tumor growth” (priority 2010, published 2012)
Entries after “also recorded” stand apart in the source; their conditions may differ.

Key:
[1] = tested on: primary human CD4 T-lymphocytes; assay: Cell hyperproliferation in primary T cells (CFSE staining, mitotic index); type: cell-based; conditions: for anti-proliferative activity (in words): SPPs 10 μM, compared with HU 100 μM, Imatinib 10 μM, HU+ddI or untreated control; for Anti-proliferative capacity: class symbol, Table 6
Outline: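 Primary human CD4 T cells were activated with PHA (5 μg/ml) on day 5, and IL-2 (20 U/ml) was added on day 7. Compounds were tested at 10 μM and cells harvested on day 10. Proliferation was measured by CFSE dilution as a normalized mitotic index, and apoptosis by Annexin V/7-AAD staining on day 10.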

[2] = tested on: primary human CD4 T-lymphocytes; assay: Apoptosis in primary CD4 T cells (Annexin V and 7-AAD staining); type: cell-based; conditions: for apoptotic effect (in words): SPPs 10 μM, compared with HU 100 μM, HU+ddI or untreated control
Outline: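 Resting primary human CD4 T cells from healthy donors were PHA-activated (5 μg/ml) at day 5, with IL-2 (20 U/ml) added at day 7. Compounds were tested at 10 μM. At day 10, Annexin V/7-AAD staining gave percentage of total apoptotic events.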

HIV-1 NL 4.3 [3] = assay: HIV-1 replication in quiescent CD4 T cells (p24 Ag ELISA); type: cell-based; conditions: for anti-HIV activity in quiescent cells (in words): SPPs 10 μM, compared with HU 100 μM, HU+ddI or untreated control; for inhibition at 10 µM: Human immunodeficiency virus 1, CD4+ T, quiescent cells, read-out: reduction of HIV-1 p24 production / inhibition of HIV replication compared to untreated control; for Antiviral activity in quiescent cells: class symbol, Table 6
Outline: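 Resting human CD4 T cells from healthy donors were infected, then stimulated with PHA 5 μg/ml on day 5 and IL-2 20 U/ml on day 7. Compounds were tested at 10 μM, with HU 100 μM ± ddI 2 μM as comparators. p24 was measured by ELISA on day 10 and expressed as % of untreated control.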

HIV-1 NL 4.3 [4] = assay: HIV-1 replication in activated T cells (PBMC, p24 Ag ELISA); type: cell-based; conditions: for anti-HIV activity in activated T cells (in words): SPPs 10 μM, compared with HU 100 μM, HU+ddI or untreated control; for inhibition at 10 µM: Human immunodeficiency virus 1, T-cell, activated T cells, read-out: inhibition of p24 production / HIV replication compared to untreated control; for Antiviral activity in activated cells: class symbol, Table 6
Outline: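 PBMC from healthy donors, stimulated two days with PHA 5 μg/ml, were infected with HIV-1 NL 4.3 and given IL-2 (20 U/ml) and compound at 10^5 cells per well. After 7 days at 37° C, supernatant p24 Ag was measured by ELISA against an untreated control.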

[5] = tested on: Human peripheral blood mononuclear cells (PBMC); assay: Cell cycle analysis of anti-CD3/anti-CD28 stimulated PBMC (Ki-67 and 7-AAD flow cytometry); type: cell-based; conditions: 24 hours treatment; compared to the not treated control; FIG. 6
Method: A 48 well plate was coated with anti-CD3 antibody by dispensing 100 microliter of a 10 μg/ml antibody solution followed by overnight incubation at 4° C. Human peripheral blood mononuclear cells (PBMC), obtained from healthy, normal donors, were then plated (2×10^6 cells per well in 1 ml) in complete culture medium supplemented with anti-CD28 antibody (2 μg/ml). Stimulated cells were cultured for 2 days then treated with HU, CsA, and VS1-002 to induce cell cycle arrest.

[6] = tested on: Human peripheral blood mononuclear cells (PBMC); conditions: human, 7 days, 10 μM

SMILES: NC(=O)NO [HU, hydroxyurea, reference compound]
- inhibition at 100 µM ([1]; Homo sapiens, T-lymphocyte, read-out: decrease/inhibition of cell proliferation compared to not treated control): 74%
- anti-proliferative activity (in words) [1]: did substantially decrease cell proliferation
- apoptotic effect (in words) [2]: no significant increases; also recorded: did not substantially affect the percentage of total apoptotic events
- anti-HIV activity in quiescent cells (in words) (HIV-1 NL 4.3 [3]): potent antiviral activity
- anti-HIV activity in activated T cells (in words) (HIV-1 NL 4.3 [4]): not effective in inhibiting HIV replication
- effect on cell cycle phases (in words) [5]: decreased the percentage of cells in S phase with an increase in the percentage of cells in G1 phase

SMILES: CCCCNc1nc(SCC)nc2c1cnn2CC(Cl)c1ccccc1 (centres unmarked) [VS1-002, N-butyl-1-(2-chloro-2-phenylethyl)-6-(ethylthio)-1H-pyrazolo[3,4-d]pyrimidin-4-amine]
- anti-proliferative activity (in words) [1]: as effective as 100 μM HU; also recorded: comparable to that of 100 μM HU and superior to that of Imatinib
- Anti-proliferative capacity [1]: +++ (excellent (+++, greater than 70% activity))
- less proapoptotic effect than HU 100 μM+ddI 2 μM combination ([2]; 10 μM, spider graph FIG. 3): more than 20%
- apoptotic effect (in words) [2]: did not affect the percentage of apoptotic events; also recorded: not proapoptotic
- inhibition at 10 µM (HIV-1 NL 4.3 [3]): 90%
- anti-HIV activity in quiescent cells (in words) (HIV-1 NL 4.3 [3]): antiviral activity in both quiescent and in hyperactivated cells
- Antiviral activity in quiescent cells (HIV-1 NL 4.3 [3]): +++ (excellent (+++, greater than 70% activity))
- inhibition at 10 µM (HIV-1 NL 4.3 [4]): 86%
- anti-HIV activity in activated T cells (in words) (HIV-1 NL 4.3 [4]): inhibited HIV replication in activated T cells
- Antiviral activity in activated cells (HIV-1 NL 4.3 [4]): +++ (excellent (+++, greater than 70% activity))
- effect on cell cycle phases (in words) [5]: decreased the percentage of cells in S phase with an increase in the percentage of cells in G1 phase
- % viability [6]: 108.9 ± 8.7%
- less toxicity than HU 100 μM+ddI 2 μM combination [6]: 20%

SMILES: CSc1nc(NCCc2ccccc2)c2cnn(CC(Cl)c3ccccc3)c2n1 (centres unmarked) [VS1-004, 1-(2-chloro-2-phenylethyl)-6-(methylthio)-N-(2-phenylethyl)-1H-pyrazolo[3,4-d]pyrimidin-4-amine]
- anti-proliferative activity (in words) [1]: as anti-proliferative as 100 μM HU; also recorded: as effective as HU+ddI; also recorded: as effective as 100 μM HU
- Anti-proliferative capacity [1]: +++ (excellent (+++, greater than 70% activity))
- apoptotic effect (in words) [2]: only induced a small apoptotic effect; also recorded: same level; also recorded: slight increase
- inhibition at 10 µM (HIV-1 NL 4.3 [3]): 93%
- anti-HIV activity in quiescent cells (in words) (HIV-1 NL 4.3 [3]): good antiviral potency; also recorded: as effective as HU+ddI
- Antiviral activity in quiescent cells (HIV-1 NL 4.3 [3]): +++ (excellent (+++, greater than 70% activity))
- inhibition at 10 µM (HIV-1 NL 4.3 [4]): 88%
- anti-HIV activity in activated T cells (in words) (HIV-1 NL 4.3 [4]): good antiviral potency; also recorded: as effective as HU+ddI
- Antiviral activity in activated cells (HIV-1 NL 4.3 [4]): +++ (excellent (+++, greater than 70% activity))
- % viability [6]: 74.9 ± 13.8%
